What was measured:
[1] = Hydrogen sulfide selectivity test: decomplexation by NaOAc; assay type: physicochemical; settings: 100 μM or (1 mM), 37° C. for 15 minutes
Description: (§1) In addition to hydrogen sulfide, many different anions, radicals, etc. exist in the body. Therefore, to examine selective reactivity of the ^64Cu-labeled complex compound according to the present disclosure for sulfide ions, the following experiment was performed.
(§2) About 45 μCi-55 μCi of the ^64Cu-labeled complex compound (250 μL of triple distilled water) was mixed with 100 μM of various anion solutions (250 μL of triple distilled water) including biothiol, and stirred at 37° C. for 15 minutes.
(§3) Formation of copper sulfide (^64CuS) was quantified by using a radio-TLC scanner.
(§4) Various biothiol or salt solutions were prepared by dissolving the compounds in triple distilled water.
(§5) In Table, concentrations of all biothiols and other competitive materials are 100 μM. Further, specific concentrations of biothiols, anions, and oxidants used in Table are as follows: [L-Cys (1 mM); L-Hcys (10 mM); GSH (10 mM); DL-dithiothretitol (DTT, 100 μM); L-ascorbic acid (L-AsA, 10 mM); 2-mercaptoethanol (2-ME, 10 mM); NaCl (10 mm); KI (1 mM); Na2S2O3 (1 mM); Na2S2O5 (1 mM); NaOAc (1 mM); H2O2 ([…]); NaClO4 (100 μM); NaHCO3 (100 μM); NaNO2 ([…]); NaN3 (100 μM); ATB 337 (100 μM); diallyl trisulphide (100 μM)].

[2] = Hydrogen sulfide selectivity test: decomplexation by H2O2; assay type: physicochemical; settings: H2O2 (100 µM); 37° C. for 15 minutes
Description: as §1, §2, §3, §4, §5

[3] = Hydrogen sulfide selectivity test: decomplexation by GSH; assay type: physicochemical; settings: 100 μM or GSH (10 mM), 37° C. for 15 minutes
Description: as §1, §2, §3, §4, §5

[4] = Hydrogen sulfide selectivity test: decomplexation by ME; assay type: physicochemical; settings: 2-mercaptoethanol; 100 μM or (2-ME, 10 mM); 37° C. for 15 minutes
Description: as §1, §2, §3, §4, §5

[5] = Hydrogen sulfide selectivity test: decomplexation by ATB 337; assay type: physicochemical; settings: ATB 337 (100 μM); 37° C. for 15 minutes
Description: as §1, §2, §3, §4, §5

[6] = Hydrogen sulfide selectivity test: decomplexation by NaN3; assay type: physicochemical; settings: NaN3 (100 μM); 37° C. for 15 minutes
Description: as §1, §2, §3, §4, §5

[7] = Hydrogen sulfide selectivity test: decomplexation by NaNO2; assay type: physicochemical; settings: NaNO2 (100 µM); 37° C. for 15 minutes
Description: as §1, §2, §3, §4, §5

[8] = Test of hydrogen sulfide selectivity (overall statements); assay type: physicochemical
Description: as §1, §2, §3, §4, §5

[9] = Hydrogen sulfide selectivity test: decomplexation by Na2S2O5; assay type: physicochemical; settings: 100 μM or (1 mM), 37° C. for 15 minutes
Description: as §1, §2, §3, §4, §5

[10] = Test of hydrogen sulfide detection sensitivity (% decomplexation with NaHS, radio-TLC); assay type: physicochemical; settings: 37° C. for 15 minutes
Description: To measure hydrogen sulfide detection sensitivity of the ^64Cu-labeled complex compound according to the present disclosure, the following experiment was performed.
About 45 μCi-55 μCi of ^64Cu-labeled complex compound (250 μL of triple distilled water) was mixed with various concentrations of NaHS solution (250 µL of triple distilled water), and stirred at 37° C. for 15 minutes (a total volume used in the reaction was equally 500 μL). After completion of the reaction, the resulting products were strongly stirred to mix appropriately.
Formation of copper sulfide (^64CuS) was confirmed by quantification of % decomplexation by using a radio-TLC scanner, and results are shown in the following Tables 2 and 3.

[11] = Hydrogen sulfide selectivity test: decomplexation by Kl; assay type: physicochemical; settings: 100 μM or KI (1 mM), 37° C. for 15 minutes
Description: as §1, §2, §3, §4, §5

[12] = Hydrogen sulfide selectivity test: decomplexation by DAT (diallyl trisulphide); assay type: physicochemical; settings: DAT = diallyl trisulphide (100 μM); 37° C. for 15 minutes
Description: as §1, §2, §3, §4, §5

[13] = Hydrogen sulfide selectivity test: decomplexation by NaHCO3; assay type: physicochemical; settings: NaHCO3 (100 μM); 37° C. for 15 minutes
Description: as §1, §2, §3, §4, §5

[14] = Hydrogen sulfide selectivity test: decomplexation by NaCl; assay type: physicochemical; settings: 100 μM or NaCl (10 mm), 37° C. for 15 minutes
Description: as §1, §2, §3, §4, §5

[15] = Hydrogen sulfide selectivity test: decomplexation by DTT; assay type: physicochemical; settings: DL-dithiothretitol (DTT, 100 μM); 37° C. for 15 minutes
Description: as §1, §2, §3, §4, §5

[16] = Test of hydrogen sulfide detection over time (^64CuS formation, radio-TLC); assay type: physicochemical; set-up: unit not given here; settings: 100 μM NaHS, 37° C.
Description: To examine reactivity of the ^64Cu-labeled complex compound according to the present disclosure over time, the following experiment was performed.
A detailed experimental method is as follows.
About 45 μCi-50 μCi of ^64Cu-labeled complex compound (250 μL of triple distilled water) was mixed with 100 μM of NaHS solution ([…] of triple distilled water), and stirred at 37° C. for 15 minutes. Formation of copper sulfide (^64CuS) was quantified by using a radio-TLC scanner.

[17] = Hydrogen sulfide selectivity test: decomplexation by L-AsA; assay type: physicochemical; settings: L-ascorbic acid; 100 μM or (L-AsA, 10 mM); 37° C. for 15 minutes
Description: as §1, §2, §3, §4, §5

[18] = Hydrogen sulfide selectivity test: decomplexation by Hcys; assay type: physicochemical; settings: 100 μM or L-Hcys (10 mM), 37° C. for 15 minutes
Description: as §1, §2, §3, §4, §5

[19] = Hydrogen sulfide selectivity test: decomplexation by Na2S2O3; assay type: physicochemical; settings: 100 μM or (1 mM), 37° C. for 15 minutes
Description: as §1, §2, §3, §4, §5

[20] = Hydrogen sulfide selectivity test: decomplexation by NaClO4; assay type: physicochemical; settings: NaClO4 (100 μM); 37° C. for 15 minutes
Description: as §1, §2, §3, §4, §5

[21] = test system: Paw inflammation model; assay type: in vivo, Balb/c or ICR mice; settings: for selective uptake in inflamed sites: optical imaging and nuclear medicine imaging
Description: (1) Paw Pain Inflammation Model
A small amount of CFA (complete Freund's adjuvant) or formalin was injected into only one paw (right) of the hind paws of Balb/c or ICR mice to establish inflammation models. 1 day after injection of the inflammation inducer, the mice were used in imaging or other in vivo experiments.
It is a known fact that inflamed sites show high concentrations of hydrogen sulfide.
Nuclear medicine imaging was measured by using an Inveon PET/CT system of Siemens Healthcare, and optical imaging was measured by using IVIS spectrum CT equipment. Cherenkov radiation emitted from ^64Cu was measured by using a highly sensitive CCD (charge-coupled device) camera.
Imaging was measured for 1 minute to 5 minutes, and a radiation dose was about 50 μCi to 2000 μCi, and photographs were variously taken as needed, such as immediately after first injection, at 1 hour, 4 hours, and 24 hours later.

[22] = Hydrogen sulfide selectivity test: decomplexation by Cys; assay type: physicochemical; settings: 100 μM or L-Cys (1 mM), 37° C. for 15 minutes
Description: as §1, §2, §3, §4, §5

[23] = Retention/excretion after injection into sites on the backs of rats (optical imaging); assay type: in vivo; settings: about 0.48 mCi injected into sites on the backs of rats
Description: Next, at the beginning of the second experiment, about 0.48 mCi of ^64Cu(II) ion, ^64CuS, ^64Cu-labeled complex compound according to Example 1, and ^64Cu-labeled complex compound according to Example 16 were injected into four sites on the backs of the same rats, respectively. Immediately, optical images were taken and shown in a lower left image of FIG. 4. A photograph taken after 4 hours was shown in a lower right image of FIG. 4.

[24] = test system: colon carcinoma cell CT-26; assay: Cellular uptake test under various NaHS concentrations (gamma counter); assay type: cell-based; settings: CT-26 cells
Description: Cellular drug uptake is an important prognostic factor in the diagnosis of diseases. Therefore, to examine cellular uptake of the ^64Cu-labeled complex compounds according to the present disclosure, experiments for measuring changes in the cellular uptake under various concentrations of hydrogen sulfide were performed.
A colon carcinoma cell CT-26 was seeded in each plate at a density of 5×10^6, and then 10 μCi-300 μCi of ^64Cu-labeled complex compound of Examples 1, 7 or 9 according to the present disclosure was treated thereto, followed by incubation for 10 minutes. The cells were washed with PBS, and then 0 μM, 1 μM, or 50 μM of NaHS solution was added thereto, followed by incubation for 5 minutes. Thereafter, the cells were washed with PBS, and then cells were removed from the plate by adding trypsin and EDTA, followed by centrifugation. Supernatants were discarded and radiation of remaining cells was measured by using a gamma counter.

C1C[N]2CCC[N]3CCC[N](C1)[64Cu]23 [Example 21]
Decomplexation [%] [1]: 1% | Decomplexation [%] [2]: 3% | Decomplexation [%] [3]: 33% | Decomplexation [%] [4]: 2 ± 2% | Decomplexation [%] [5]: 6 ± 2% | Decomplexation [%] [6]: 0.5% | Decomplexation [%] [7]: 0.5% | selective reactivity with hydrogen sulfide versus biothiol compounds or anions, in words [8]: did not selectively react with hydrogen sulfide | Decomplexation [%] [9]: 4 ± 2% | % decomplexation ([10]; NaHS 0 μM): 0% | % decomplexation ([10]; NaHS 1 μM): 0% | % decomplexation ([10]; NaHS 10 μM): 6.2% | % decomplexation ([10]; NaHS 15 μM): 10% | % decomplexation ([10]; NaHS 20 μM): 58% | % decomplexation ([10]; NaHS 50 μM): 63% | % decomplexation ([10]; NaHS 100 μM): 100% | Decomplexation [%] [11]: 0.3% | Decomplexation [%] [12]: 49 ± 2% | Decomplexation [%] [13]: 0.9% | Decomplexation [%] [14]: 0.4 ± 0.2% | Decomplexation [%] [15]: 25% | Formation of copper sulfide (^64CuS) over time ([16]; 10 sec): 52 | Formation of copper sulfide (^64CuS) over time ([16]; 30 sec): 72 | Formation of copper sulfide (^64CuS) over time ([16]; 60 sec): 100 | Formation of copper sulfide (^64CuS) over time ([16]; 5 min): 100 | Formation of copper sulfide (^64CuS) over time ([16]; 10 min): 100 | Formation of copper sulfide (^64CuS) over time ([16]; 15 min): 100 | Decomplexation [%] [17]: 4 ± 2% | Decomplexation [%] [18]: 30 ± 5% | Decomplexation [%] [19]: 3 ± 1% | Decomplexation [%] [20]: 2 ± 1% | selective uptake in inflamed sites [21]: selective uptake | Decomplexation [%] [22]: 9 ± 3%

[Cu+2] [^64Cu(II) ion, reference compound]
selective reactivity with hydrogen sulfide versus biothiol compounds or anions, in words [8]: reacted with various biothiol compounds or anions | retention time relative to ^64CuS [23]: about half of ^64CuS

CC1=NC(C)CNC(C)(C)CC(C)=NC(C)CNC(C)(C)C1.[64Cu+2] (stereo not shown) [Example 7]
uptake in inflamed paw versus opposite paw ([21]; optical and nuclear medicine imaging performed 2 hours later): higher uptakes | Uptake (radiation of remaining cells, gamma counter) ([24]; NaHS Concentration 0 μM): 20000 | Uptake (radiation of remaining cells, gamma counter) ([24]; NaHS Concentration 1 μM): 21000 | Uptake (radiation of remaining cells, gamma counter) ([24]; NaHS Concentration 50 μM): 23000

[Cu+2].[S-2] [^64CuS, copper sulfide (^64CuS)]
excretion from / retention in the body, in words ([23]; images immediately and after 4 hours): remains for a long time in the body

C1COCCNCCOCCN1.[64Cu+2] [Example 3]
Decomplexation [%] [1]: 15% | Decomplexation [%] [2]: 0.4% | Decomplexation [%] [3]: 48% | Decomplexation [%] [4]: 16% | Decomplexation [%] [5]: 3 ± 1% | Decomplexation [%] [6]: 0.6% | Decomplexation [%] [7]: 0.5% | selective reactivity with hydrogen sulfide versus biothiol compounds or anions, in words [8]: did not selectively react with hydrogen sulfide | Decomplexation [%] [9]: 5% | % decomplexation ([10]; NaHS 0 μM): 0% | % decomplexation ([10]; NaHS 1 μM): 0% | % decomplexation ([10]; NaHS 10 μM): 3% | % decomplexation ([10]; NaHS 15 μM): 6% | % decomplexation ([10]; NaHS 20 μM): 79% | % decomplexation ([10]; NaHS 50 μM): 100% | % decomplexation ([10]; NaHS 100 μM): 100% | Decomplexation [%] [11]: 0.1% | Decomplexation [%] [12]: 100% | Decomplexation [%] [13]: 0.3% | Decomplexation [%] [14]: 0.3% | Decomplexation [%] [15]: 45 ± 2% | Formation of copper sulfide (^64CuS) over time ([16]; 10 sec): 62 | Formation of copper sulfide (^64CuS) over time ([16]; 30 sec): 70 | Formation of copper sulfide (^64CuS) over time ([16]; 60 sec): 75 | Formation of copper sulfide (^64CuS) over time ([16]; 5 min): 100 | Formation of copper sulfide (^64CuS) over time ([16]; 10 min): 100 | Formation of copper sulfide (^64CuS) over time ([16]; 15 min): 100 | Decomplexation [%] [17]: 15% | Decomplexation [%] [18]: 27 ± 3% | Decomplexation [%] [19]: 19 ± 5% | Decomplexation [%] [20]: 0.4% | selective uptake in inflamed sites [21]: selective uptake | Decomplexation [%] [22]: 0.4%
